Laboratory results reported in patent publication US8178727B2, “Bis(arylmethylidene)acetone compound, anti-cancer agent, carcinogenesis-preventive agent, inhibitor of expression of Ki-Ras, ErbB2, c-Myc and Cycline D1, β-catenin-degrading agent, and p53 expression enhancer” (National University Corporation Tohoku University, priority 2005, dated 2012).

How the values were obtained:
DLD-1 cells [1] = test: Cell cycle / apoptosis-inducing activity by flow cytometry (FACScan); assay type: cell-based, human
Procedure: The activity of test compounds in cell cycle (apoptosis-inducing activity) was analyzed with a flow cytometer (FACScan). […] The cells attached to the plates are then harvested together with the cells suspended in the medium, centrifuged, and pelleted, followed by removal of supernatants. The collected cells were washed twice with PBS, then fixed with 70% ethanol for 30 minutes or more at 4° C., then washed with PBS once more, suspended in PBS supplemented with RNaseA (final concentration: 50 μg/mL; Qiagen), and incubated for 20 minutes at 37° C. Centrifugation was performed, and the supernatant was removed, after which the nuclei were stained using a solution of propidium iodide ([…]). Filtration was then performed using a nylon mesh having a pore size of 50 μm, and a DNA histogram was analyzed with a FACScan flow cytometer ([…]). The cellular fractions of subG1 phase, G0/G1 phase, S phase, and G2/M phase were determined by calculation using macCycle (Phoenix Flow Systems).

SW620 cells = test: Cell growth inhibition (Cell Counting Kit 8, Wst-8), 96 h exposure; assay type: cell-based; settings: Homo sapiens, SW-620, SW620 colon cancer cells
Procedure: (§1) The inhibitory efficacy of bis(arylmethylidene)-acetones on the development and growth of malignant tumor cells was examined. Curcumin and bis(arylmethylidene)-acetone compounds were dissolved in DMSO to obtain 50 mM compound solutions for storage. Sixteen human cancer cell lines (HCT116, DLD-1, SW620. LK87, PC3, MCF7, PK9, HuCCT-1, SH10TC, GCIY, G361, 8505c, HepG2, A431, ACHN, OVK18) were obtained from the Medical Cellular Resources Center of the Institute of Development, Aging, and Cancer at Tohoku University, Japan. These cells were cultured at 37° C. under 5% CO2 conditions using as a culture medium RPMI1640 (Sigma Aldrich) supplemented with 10% fetal bovine serum and kanamycin (Wako Pure Chemical Industries: final concentration, […]).
(§2) Three human colon-cancer cell lines (DLD-1, HCT116, SW620) were used in screening for cell growth inhibitory efficacy. The test compounds (bis(arylmethylidene)-acetones) were added to the culture media at the target concentrations, and exposure to the compounds was then continued for 96 hours in order to investigate not only acute cell damages but also effects on the cells, involving intracellular metabolic responses and others. The cell growth inhibitory efficacy was then evaluated with Cell Counting Kit 8 (Wst-8 Test, Dojindo Laboratories, Japan). In this analysis method, tetrazolium salt Wst-8 is degraded by reduced form nicotinamide adenine dinucleotide (nicotinamide adenine dinucleotide H; NADH). The activity of NADH is maintained only inside viable cells, and Wst-8 becomes colored upon degradation. The optical absorbance at 450 nm is measured, whereby the number of viable cells can be indirectly estimated.
(§3) Each cell line was placed on a 96-well microtiter plate at a cell density of 2500 to 5000 cells/100 μL/well in accordance with the growth rate of the cell line. After cell cultivation for 24 hours, […] medium containing each compound was added. The final concentration of each test compound is 0, 0.1, 0.25, 0.5, 1, 2.5, 5, 10, 25, 50, and 100 μM (11 levels). The maximum final concentration of DMSO used as a solvent was 1%. After culturing for 96 hours, the medium was aspirated away, followed by washing with PBS. Next, 100 μL of a medium containing a solution of Cell Counting Kit 8 at 1/10 (v/v) was added. Culturing was then continued for one hour. Thereafter, each optical absorbance at 450 nm (620 nm background) was measured with an MPR-A4i microplate reader (Tosoh, Japan). A curve of the inhibition of cell growth was constructed using the measured optical absorbances.

HCT116 cells = test: as above; assay type: cell-based; settings: Homo sapiens, HCT-116, HCT116 colon cancer cells
Procedure: as §1, §2, §3

DLD-1 cells [2] = test: as above; assay type: cell-based; settings: Homo sapiens, DLD-1 colon cancer cells
Procedure: as §1, §2, §3

[3] = tested on: melanoma and breast cancer cells; settings: Non-Patent Document 2; cited from earlier work
colon-cancer cells = test: Growth inhibition compared with anti-cancer agents 5-FU, CPT11, CDDP (FIG. 6); assay type: cell-based, human
Procedure: as §1, §3
Stored solutions of three anti-cancer agents: 5-FU, CDDP, and CPT11, prepared beforehand (1 mM), were suitably diluted prior to use, and also added to culture media.

β-catenin [4] = test: Western blot of β-catenin degrading activity; assay type: cell-based, human
Procedure: Western-blot analysis was used to investigate effects on the expression of oncogene products, ErbB2, c-Myc, and Cyclin D1, whose activity is enhanced in a variety of cancer cells, and to investigate the activity of degrading β-catenin, which plays an important role in the initial stages of carcinogenesis to the formation and development of tumors.
(§4) Western-blot analysis was performed in the following manner:
(§5) After HCT116 cells were treated with each test compound, plate-adhered cells were recovered along with cells suspended in supernatants, centrifuged, and pelleted. The cells were then lysed with a lysis solution (40 mM Tris-HCl, 1% Triton X-100, 2 mM MgCl2) supplemented with 200-μM phenylmethanesulfonyl fluoride (PMSF), 500-μM benzamidine, and 1-μg/mL leupeptin. After the mixture was allowed to stand on ice for 30 minutes, it was centrifuged for 10 minutes at 4° C. and 10000×g, and supernatants were recovered. To the resultant supernatant was added equimolarly 2× sample buffer (0.1 M Tris-HCl (pH 6.8), 4% SDS, 20% glycerol, and 12% β-mercaptoethanol), and the mixture was shaken for 3 minutes at 4° C., then heated to 95° C. for 4 minutes, and then stored at −20° C. until use. The cell lysates were phoresed on 8% SDS-PAGE, transferred to a Hybond-P membrane (Amersham Biosciences), and made to react with various monoclonal antibodies described below.
(§6) Monoclonal antibodies: anti-actin antibody (A2066, Sigma Aldrich), anti-β-catenin antibody (6101 53, BD-transduction Laboratories), anti-p53 antibody (FL393: sc-6243HRP), anti-cyclin D1 antibody (M-20: sc-718), anti-c-Myc antibody (9E10: sc-40), anti-k-Ras-2B antibody (C-19: sc-521), and anti-c-ErbB2 antibody (A0485, DAKO Cytomation).

β-catenin [5] = settings: Non-Patent Document 1; cited from earlier work
[6] = cited from earlier work
p53 = test: Western blot of p53 gene product expression; assay type: cell-based, human; settings: FIG. 11
Procedure: as §4, §5, §6
Curcumin is known to have activity in degrading p53 gene products. Degradation, genetic expression reduction, instability, or other deficiencies of the tumor suppressor gene p53 gene products, result in disadvantageous conditions as concerns cell malignancy and tendency to become cancerous.

colon cancer cells = settings: Non-Patent Document 1; cited from earlier work

| IC50 (SW620 cells) | IC50 (HCT116 cells) | IC50 (DLD-1 cells [2]) | Structure (SMILES) | concentration arresting the cell cycle at the G2/M phase (DLD-1 cells [1]; DLD-1 cells, flow cytometry) | efficacy relative to curcumin [3] | growth inhibitory activity relative to 5-FU, CPT11 and CDDP (colon-cancer cells) | concentration at which β-catenin degrading activity is displayed (β-catenin [4]; FIG. 9) | concentration at which β-catenin degrading activity is displayed (β-catenin [4]; FIG. 9, listed as BDMPP) | sub-G1 fraction (apoptosis-induced cell death) (DLD-1 cells [1]; curcumin (20 μM in method)) | concentration degrading β-catenin (β-catenin [5]) | water-solubility [6] | transient drop in expression of p53 6 to 12 hours after administration (p53) | concentration inhibiting the growth of colon cancer cells (colon cancer cells) |
| --- | --- | --- | --- | --- | --- | --- | --- | --- | --- | --- | --- | --- | --- |
| 3.5 µM | 2.5 µM | 2 µM | COc1ccc(C=CC(=O)C=Cc2ccc(OC)c(OC)c2)cc1OC [GO-035, 1,5-Bis(3,4-dimethoxyphenyl)-penta-1,4-dien-3-one, reference compound] | 5 µM | 1.3 to 2.1 times | much stronger | 5.0 µM | 5 µM | – | – | – | – | – |
| 10 µM | 8 µM | 8 µM | COc1cc(/C=C/C(=O)CC(=O)/C=C/c2ccc(O)c(OC)c2)ccc1O [curcumin, (1E,6E)-1,7-bis(4-hydroxy-3-methoxyphenyl)-1,6-heptadiene-3,5-dione, reference compound] | – | – | – | 20.0 µM | – | not substantially observed | 15 µM | poor | transient drop | 20 µM |
